Test results published in publication PMC5218480 (PLoS ONE, 2017).

System: MV-4-11 cells
Assay: Gene expression microarray analysis (Affymetrix PrimeView) and GSEA
Type: cell-based, human
Parameters: RFU PODN (11730768_x_at) / Fold change /veh PODN (11730768_x_at) / RFU LINC00158 (11744669_a_at) / Fold change /veh LINC00158 (11744669_a_at) / RFU DUSP10 (11751237_a_at) / Fold change /veh DUSP10 (11751237_a_at) / RFU ID3 (11757404_x_at) / Fold change /veh ID3 (11757404_x_at) / RFU PLEKHG5 (11737974_s_at) / Fold change /veh PLEKHG5 (11737974_s_at) / RFU LRRC4B (11730491_at) / Fold change /veh LRRC4B (11730491_at) / RFU GIMAP4 (11747438_a_at) / Fold change /veh GIMAP4 (11747438_a_at) / RFU KRT8 (11758183_x_at) / Fold change /veh KRT8 (11758183_x_at) / RFU CNN1 (11734310_a_at) / Fold change /veh CNN1 (11734310_a_at) / RFU VPS37D (11726825_at) / Fold change /veh VPS37D (11726825_at) / RFU C10orf10 (11716522_x_at) / Fold change /veh C10orf10 (11716522_x_at) / RFU KIR2DL2 /// KIR2DL4 /// KIR2DL5A /// KIR2DL5B /// KIR2DS1 /// KIR2DS2 /// KIR2DS3 /// KIR2DS4 /// KIR3DL3 /// KIR3DL3 /// KIR3DS1 (11738374_at) / Fold change /veh KIR2DL2 /// KIR2DL4 /// KIR2DL5A /// KIR2DL5B /// KIR2DS1 /// KIR2DS2 /// KIR2DS3 /// KIR2DS4 /// KIR3DL3 /// KIR3DL3 /// KIR3DS1 (11738374_at) / RFU C1QL1 (11718748_at) / Fold change /veh C1QL1 (11718748_at) / RFU TMPRSS4 (11747572_a_at) / Fold change /veh TMPRSS4 (11747572_a_at) / RFU HAMP (11756126_x_at) / Fold change /veh HAMP (11756126_x_at) / RFU RNFT2 (11725882_a_at) / Fold change /veh RNFT2 (11725882_a_at) / RFU NR4A2 (11747474_a_at) / Fold change /veh NR4A2 (11747474_a_at) / RFU ABCC12 (11746883_a_at) / Fold change /veh ABCC12 (11746883_a_at) / RFU TMEM136 (11760407_x_at) / Fold change /veh TMEM136 (11760407_x_at) / RFU CLDN22 /// WWC2 (11732394_at) / Fold change /veh CLDN22 /// WWC2 (11732394_at) / RFU HLA-DPB1 (11760878_x_at) / Fold change /veh HLA-DPB1 (11760878_x_at) / RFU SPINT1 (11716480_a_at) / Fold change /veh SPINT1 (11716480_a_at) / RFU GAP43 (11754022_s_at) / Fold change /veh GAP43 (11754022_s_at) / RFU A4GNT (11735810_at) / Fold change /veh A4GNT (11735810_at) / RFU PRB3 (11715151_x_at) / Fold change /veh PRB3 (11715151_x_at) / RFU TUBB4B (11761932_at) / Fold change /veh TUBB4B (11761932_at) / RFU CAPN14 (11732068_a_at) / Fold change /veh CAPN14 (11732068_a_at) / RFU TMCC2 (11721928_a_at) / Fold change /veh TMCC2 (11721928_a_at) / RFU IRGQ (11745062_a_at) / Fold change /veh IRGQ (11745062_a_at) / RFU FAM174B (11720279_a_at) / Fold change /veh FAM174B (11720279_a_at) / RFU TMPRSS4 (11748680_a_at) / Fold change /veh TMPRSS4 (11748680_a_at) / RFU FAM212B (11763350_a_at) / Fold change /veh FAM212B (11763350_a_at) / RFU PLEKHG5 (11743358_a_at) / Fold change /veh PLEKHG5 (11743358_a_at) / RFU ZSCAN30 (11745921_a_at) / Fold change /veh ZSCAN30 (11745921_a_at) / RFU CMKLR1 (11741424_a_at) / Fold change /veh CMKLR1 (11741424_a_at) / RFU LOC101060620 /// MAPK8IP1 (11723275_at) / Fold change /veh LOC101060620 /// MAPK8IP1 (11723275_at) / RFU SPTSSB (11747773_x_at) / Fold change /veh SPTSSB (11747773_x_at) / RFU PRSS12 (11739890_at) / Fold change /veh PRSS12 (11739890_at) / RFU BIN1 (11741810_x_at) / Fold change /veh BIN1 (11741810_x_at) / RFU WNT11 (11732464_a_at) / Fold change /veh WNT11 (11732464_a_at) / RFU C10orf10 (11716521_a_at) / Fold change /veh C10orf10 (11716521_a_at) / RFU C5orf56 (11738089_at) / Fold change /veh C5orf56 (11738089_at) / RFU CYB561 (11721691_x_at) / Fold change /veh CYB561 (11721691_x_at) / RFU ANKRD19P (11752326_a_at) / Fold change /veh ANKRD19P (11752326_a_at) / RFU OR2T12 /// OR2T33 /// OR2T8 (11738714_s_at) / Fold change /veh OR2T12 /// OR2T33 /// OR2T8 (11738714_s_at) / RFU VCAN (11748164_a_at) / Fold change /veh VCAN (11748164_a_at) / RFU JSRP1 (11732532_at) / Fold change /veh JSRP1 (11732532_at) / RFU KRTAP10-11 (11738290_x_at) / Fold change /veh KRTAP10-11 (11738290_x_at) / RFU MYO3A (11730013_a_at) / Fold change /veh MYO3A (11730013_a_at) / RFU EBF3 (11725865_a_at) / Fold change /veh EBF3 (11725865_a_at) / RFU CAMK2N1 (11719241_x_at) / Fold change /veh CAMK2N1 (11719241_x_at) / RFU C5orf56 (11738088_a_at) / Fold change /veh C5orf56 (11738088_a_at) / RFU OLFML3 (11715873_a_at) / Fold change /veh OLFML3 (11715873_a_at) / RFU LOC100653217 /// NTM (11731650_a_at) / Fold change /veh LOC100653217 /// NTM (11731650_a_at) / RFU MAPK11 (11762145_a_at) / Fold change /veh MAPK11 (11762145_a_at) / RFU FIZ1 (11724087_x_at) / Fold change /veh FIZ1 (11724087_x_at) / RFU OASL (11726364_x_at) / Fold change /veh OASL (11726364_x_at) / RFU SOX15 (11748057_x_at) / Fold change /veh SOX15 (11748057_x_at) / RFU CD79A (11719716_a_at) / Fold change /veh CD79A (11719716_a_at) / RFU HIST1H1D (11736915_at) / Fold change /veh HIST1H1D (11736915_at) / RFU CASKIN2 (11723855_a_at) / Fold change /veh CASKIN2 (11723855_a_at) / RFU LOC730098 (11760151_x_at) / Fold change /veh LOC730098 (11760151_x_at) / RFU OR4N2 (11742367_at) / Fold change /veh OR4N2 (11742367_at) / RFU PRRT2 (11749266_a_at) / Fold change /veh PRRT2 (11749266_a_at) / RFU SNX32 (11753110_a_at) / Fold change /veh SNX32 (11753110_a_at) / RFU CDHR5 (11726645_a_at) / Fold change /veh CDHR5 (11726645_a_at) / RFU RCAN1 (11760418_a_at) / Fold change /veh RCAN1 (11760418_a_at) / RFU FAM167A (11723789_a_at) / Fold change /veh FAM167A (11723789_a_at) / RFU FAM26E (11764081_at) / Fold change /veh FAM26E (11764081_at) / RFU ISYNA1 (11749810_s_at) / Fold change /veh ISYNA1 (11749810_s_at) / RFU ACY1 (11761880_at) / Fold change /veh ACY1 (11761880_at) / RFU 11764098_at / Fold change /veh 11764098_at / RFU SAMD14 (11745864_x_at) / Fold change /veh SAMD14 (11745864_x_at) / RFU NPB (11741838_a_at) / Fold change /veh NPB (11741838_a_at) / RFU TMPRSS6 (11731388_a_at) / Fold change /veh TMPRSS6 (11731388_a_at) / RFU KRTAP10-2 (11738614_at) / Fold change /veh KRTAP10-2 (11738614_at) / RFU ARHGAP8 /// PRR5-ARHGAP8 (11727945_x_at) / Fold change /veh ARHGAP8 /// PRR5-ARHGAP8 (11727945_x_at) / RFU KRTAP5-7 /// NADSYN1 (11734609_at) / Fold change /veh KRTAP5-7 /// NADSYN1 (11734609_at) / RFU RASL12 (11751679_a_at) / Fold change /veh RASL12 (11751679_a_at) / RFU CDKN2B (11736163_a_at) / Fold change /veh CDKN2B (11736163_a_at) / RFU PRF1 (11729649_at) / Fold change /veh PRF1 (11729649_at) / RFU, ZNF638 /// ZNF638-IT1 / Fold change vs veh, ZNF638 /// ZNF638-IT1 / RFU, PANK3 / Fold change vs veh, PANK3 / RFU, SH3YL1 / Fold change vs veh, SH3YL1 / RFU, ZEB2 / Fold change vs veh, ZEB2 / RFU, NRIP1 / Fold change vs veh, NRIP1 / RFU, PTTG1IP / Fold change vs veh, PTTG1IP / RFU, CAPN2 / Fold change vs veh, CAPN2 / RFU, MED14 / Fold change vs veh, MED14 / RFU, SNORA58 / Fold change vs veh, SNORA58 / RFU, C1orf63 / Fold change vs veh, C1orf63 / RFU, LRRFIP1 / Fold change vs veh, LRRFIP1 / RFU, NDUFAF7 / Fold change vs veh, NDUFAF7 / RFU, SLC12A2 / Fold change vs veh, SLC12A2 / RFU, IBTK / Fold change vs veh, IBTK / RFU, ESF1 / Fold change vs veh, ESF1 / Fold change vs veh, TMEM50B / RFU, TAOK1 / Fold change vs veh, TAOK1 / RFU, ACBD3 / Fold change vs veh, ACBD3 / RFU, TMA16 / Fold change vs veh, TMA16 / RFU, RWDD3 / Fold change vs veh, RWDD3 / RFU, BCAT1 / Fold change vs veh, BCAT1 / RFU, EDEM3 / Fold change vs veh, EDEM3 / RFU, TMEM33 / Fold change vs veh, TMEM33 / RFU, WDR75 / Fold change vs veh, WDR75 / RFU, AHCTF1 / Fold change vs veh, AHCTF1 / RFU, TFRC / Fold change vs veh, TFRC / RFU, ZDHHC17 / Fold change vs veh, ZDHHC17 / RFU, NOM1 / Fold change vs veh, NOM1 / RFU, ARL8B / Fold change vs veh, ARL8B / RFU, ZBTB11 / Fold change vs veh, ZBTB11 / RFU, TAMM41 / Fold change vs veh, TAMM41 / RFU, KIAA1704 /// LOC100996395 / Fold change vs veh, KIAA1704 /// LOC100996395 / RFU, ING1 / Fold change vs veh, ING1 / RFU, TRMT61B / Fold change vs veh, TRMT61B / RFU, FUBP3 / Fold change vs veh, FUBP3 / RFU, TP53 / Fold change vs veh, TP53 / RFU, TNKS2 / Fold change vs veh, TNKS2 / RFU, ZFP14 / Fold change vs veh, ZFP14 / RFU, ACTR2 / Fold change vs veh, ACTR2 / RFU, PPP3R1 / Fold change vs veh, PPP3R1 / RFU, PIK3R1 / Fold change vs veh, PIK3R1 / RFU, HNRNPA1 / Fold change vs veh, HNRNPA1 / RFU, RNF170 / Fold change vs veh, RNF170 / RFU, ZNF28 / Fold change vs veh, ZNF28 / RFU, RNGTT / Fold change vs veh, RNGTT / RFU, OGT / Fold change vs veh, OGT / RFU, BRD1 / Fold change vs veh, BRD1 / RFU, MARS / Fold change vs veh, MARS / RFU, ZNF655 / Fold change vs veh, ZNF655 / RFU, FAHD1 / Fold change vs veh, FAHD1 / RFU, BDP1 / Fold change vs veh, BDP1 / RFU, LRRCC1 / Fold change vs veh, LRRCC1 / RFU, ARID1A / Fold change vs veh, ARID1A / RFU, ZNF146 / Fold change vs veh, ZNF146 / RFU, ZNF330 / Fold change vs veh, ZNF330 / RFU, GPN3 / Fold change vs veh, GPN3 / RFU, C9orf123 / Fold change vs veh, C9orf123 / RFU, N4BP2L2 / Fold change vs veh, N4BP2L2 / RFU, ARFIP1 / Fold change vs veh, ARFIP1 / RFU, FAM179B / Fold change vs veh, FAM179B / RFU, BCL10 / Fold change vs veh, BCL10 / RFU, UHRF1BP1L / Fold change vs veh, UHRF1BP1L / RFU, BET1 / Fold change vs veh, BET1 / RFU, CNOT2 / Fold change vs veh, CNOT2 / RFU, ZNF268 / Fold change vs veh, ZNF268 / Fold change vs veh, ZNF507 / RFU, DGCR2 / Fold change vs veh, DGCR2 / RFU, WDSUB1 / Fold change vs veh, WDSUB1 / Fold change vs veh, HSP90B1 /// MIR3652 / RFU, ADSS / Fold change vs veh, ADSS / RFU, GK / Fold change vs veh, GK / RFU, ZNF148 / Fold change vs veh, ZNF148 / RFU, TAF9 / Fold change vs veh, TAF9 / RFU, SLC1A5 / Fold change vs veh, SLC1A5 / RFU, SLMO2 / Fold change vs veh, SLMO2 / RFU, ABCC4 / Fold change vs veh, ABCC4 / RFU, LOC101060439 /// RAP1B / Fold change vs veh, LOC101060439 /// RAP1B / RFU, RFX7 / Fold change vs veh, RFX7 / RFU, GTPBP10 / Fold change vs veh, GTPBP10 / RFU, CNEP1R1 / Fold change vs veh, CNEP1R1 / RFU, BIVM-ERCC5 /// ERCC5 / Fold change vs veh, BIVM-ERCC5 /// ERCC5 / RFU, ILF3 / Fold change vs veh, ILF3 / RFU 11762660_at / Fold change /veh 11762660_at / RFU VCAN (11757783_s_at) / Fold change /veh VCAN (11757783_s_at) / RFU DDX43 (11728927_at) / Fold change /veh DDX43 (11728927_at) / RFU KRT8 (11758188_x_at) / Fold change /veh KRT8 (11758188_x_at) / RFU NKD1 (11759106_at) / Fold change /veh NKD1 (11759106_at) / RFU SRD5A1 (11742802_a_at) / Fold change /veh SRD5A1 (11742802_a_at) / RFU TPSAB1 /// TPSB2 (11721975_s_at) / Fold change /veh TPSAB1 /// TPSB2 (11721975_s_at) / RFU GSTM3 (11746129_a_at) / Fold change /veh GSTM3 (11746129_a_at) / RFU IL23R (11737362_x_at) / Fold change /veh IL23R (11737362_x_at) / RFU TMEM51 (11727254_a_at) / Fold change /veh TMEM51 (11727254_a_at) / RFU PIWIL2 (11732686_x_at) / Fold change /veh PIWIL2 (11732686_x_at) / RFU ORM1 (11744905_x_at) / Fold change /veh ORM1 (11744905_x_at) / RFU CCDC152 (11743942_at) / Fold change /veh CCDC152 (11743942_at) / RFU ECM1 (11717891_a_at) / Fold change /veh ECM1 (11717891_a_at) / RFU IL23R (11748794_a_at) / Fold change /veh IL23R (11748794_a_at) / RFU TNFAIP8L3 (11732012_x_at) / Fold change /veh TNFAIP8L3 (11732012_x_at) / RFU MBOAT4 (11741988_at) / Fold change /veh MBOAT4 (11741988_at) / RFU 11764193_at / Fold change /veh 11764193_at / RFU TMEM53 (11763286_at) / Fold change /veh TMEM53 (11763286_at) / RFU MAGEB2 (11727129_at) / Fold change /veh MAGEB2 (11727129_at) / RFU TMEM200A (11744735_a_at) / Fold change /veh TMEM200A (11744735_a_at) / RFU CCDC152 (11751479_a_at) / Fold change /veh CCDC152 (11751479_a_at) / RFU FAM211A (11726209_a_at) / Fold change /veh FAM211A (11726209_a_at) / RFU RGS16 (11746705_a_at) / Fold change /veh RGS16 (11746705_a_at) / RFU VCAN (11755009_s_at) / Fold change /veh VCAN (11755009_s_at) / RFU RHOB (11743442_s_at) / Fold change /veh RHOB (11743442_s_at) / RFU RGS16 (11720943_a_at) / Fold change /veh RGS16 (11720943_a_at) / RFU RGS16 (11720944_at) / Fold change /veh RGS16 (11720944_at) / RFU, VPS4B / Fold change vs veh, VPS4B / RFU, CREB1 / Fold change vs veh, CREB1 / RFU, DNAJC13 / Fold change vs veh, DNAJC13 / RFU, GNAQ / Fold change vs veh, GNAQ / RFU, CDK5R1 / Fold change vs veh, CDK5R1 / RFU, ZRANB3 / Fold change vs veh, ZRANB3 / RFU, CUL4A / Fold change vs veh, CUL4A / RFU, CCNY / Fold change vs veh, CCNY / RFU, UFL1 / Fold change vs veh, UFL1 / RFU, COG3 / Fold change vs veh, COG3 / RFU, DIAPH2 / Fold change vs veh, DIAPH2 / RFU, SKA2 / Fold change vs veh, SKA2 / RFU, AFF3 / Fold change vs veh, AFF3 / RFU, LMF1 / Fold change vs veh, LMF1 / RFU, IPO11 / Fold change vs veh, IPO11 / RFU, DFFB / Fold change vs veh, DFFB / RFU, FOXP1 / Fold change vs veh, FOXP1 / RFU, CARD8 / Fold change vs veh, CARD8 / RFU, STRN3 / Fold change vs veh, STRN3 / RFU, ADK / Fold change vs veh, ADK / RFU, RASSF2 / Fold change vs veh, RASSF2 / RFU, WIPF1 / Fold change vs veh, WIPF1 / RFU, LARP1B / Fold change vs veh, LARP1B / RFU, RASA1 / Fold change vs veh, RASA1 / RFU, RB1 / Fold change vs veh, RB1 / RFU, PPFIA1 / Fold change vs veh, PPFIA1 / RFU, MAT2A / Fold change vs veh, MAT2A / RFU, CCT5 / Fold change vs veh, CCT5 / RFU, WDR92 / Fold change vs veh, WDR92 / RFU, CUX1 / Fold change vs veh, CUX1 / RFU, TTC7A / Fold change vs veh, TTC7A / RFU, TMEM135 / Fold change vs veh, TMEM135 / RFU, DEPTOR / Fold change vs veh, DEPTOR / RFU, CPM / Fold change vs veh, CPM / RFU, DNAJB6 / Fold change vs veh, DNAJB6 / RFU, CACNA2D3 / Fold change vs veh, CACNA2D3 / RFU, DTX4 / Fold change vs veh, DTX4 / RFU, TFCP2 / Fold change vs veh, TFCP2 / RFU, GMCL1 /// GMCL1P1 / Fold change vs veh, GMCL1 /// GMCL1P1 / RFU, AEBP2 / Fold change vs veh, AEBP2 / RFU, SNHG1 /// SNORD22 /// SNORD25 /// SNORD26 /// SNORD27 /// SNORD28 /// SNORD29 /// SNORD31 / Fold change vs veh, SNHG1 /// SNORD22 /// SNORD25 /// SNORD26 /// SNORD27 /// SNORD28 /// SNORD29 /// SNORD31 / Fold change (Aza/veh), C12orf56 (ProbeSet 11735607_a_at) / Fold change (ACY-1035/veh), C12orf56 (ProbeSet 11735607_a_at) / Fold change (Aza/veh), FGFR1OP (ProbeSet 11751329_s_at) / Fold change (ACY-1035/veh), FGFR1OP (ProbeSet 11751329_s_at) / Fold change (Aza/veh), VPS36 (ProbeSet 11739960_a_at) / Fold change (ACY-1035/veh), VPS36 (ProbeSet 11739960_a_at) / RFU SYPL1 (11715823_x_at) / Fold change /veh SYPL1 (11715823_x_at) / RFU IGFBP7 (11715501_s_at) / Fold change /veh IGFBP7 (11715501_s_at) / RFU REEP3 (11722064_at) / Fold change /veh REEP3 (11722064_at) / RFU IGLL1 (11728026_x_at) / Fold change /veh IGLL1 (11728026_x_at): dose or concentration left out as unconfirmed
Conditions: ProbeSet 11727958_a_at; LIST B

Structure (SMILES): Nc1ncn([C@@H]2O[C@H](CO)[C@@H](O)[C@H]2O)c(=O)n1 [azacitidine]
- Fold change vs veh, ING1: 0.99
